Experiments:
[1] = target: Poly [ADP-ribose] polymerase 2 (Homo sapiens, UniProt Q9UGN5); experiment: (§1) Biochemical Assay: PARP1 biochemical assay was purchased as a kit from Trevigen (cat.#4676-096-K) and used per manufacturers recommendations.PARP2 biochemical assay was purchased as a kit from BPS (cat.#80552) and used per manufacturers recommendations.
[2] = target: Poly [ADP-ribose] polymerase 1 (Homo sapiens, UniProt P09874); experiment: as §1
Chain of Poly [ADP-ribose] polymerase 1 (P09874 whole entry): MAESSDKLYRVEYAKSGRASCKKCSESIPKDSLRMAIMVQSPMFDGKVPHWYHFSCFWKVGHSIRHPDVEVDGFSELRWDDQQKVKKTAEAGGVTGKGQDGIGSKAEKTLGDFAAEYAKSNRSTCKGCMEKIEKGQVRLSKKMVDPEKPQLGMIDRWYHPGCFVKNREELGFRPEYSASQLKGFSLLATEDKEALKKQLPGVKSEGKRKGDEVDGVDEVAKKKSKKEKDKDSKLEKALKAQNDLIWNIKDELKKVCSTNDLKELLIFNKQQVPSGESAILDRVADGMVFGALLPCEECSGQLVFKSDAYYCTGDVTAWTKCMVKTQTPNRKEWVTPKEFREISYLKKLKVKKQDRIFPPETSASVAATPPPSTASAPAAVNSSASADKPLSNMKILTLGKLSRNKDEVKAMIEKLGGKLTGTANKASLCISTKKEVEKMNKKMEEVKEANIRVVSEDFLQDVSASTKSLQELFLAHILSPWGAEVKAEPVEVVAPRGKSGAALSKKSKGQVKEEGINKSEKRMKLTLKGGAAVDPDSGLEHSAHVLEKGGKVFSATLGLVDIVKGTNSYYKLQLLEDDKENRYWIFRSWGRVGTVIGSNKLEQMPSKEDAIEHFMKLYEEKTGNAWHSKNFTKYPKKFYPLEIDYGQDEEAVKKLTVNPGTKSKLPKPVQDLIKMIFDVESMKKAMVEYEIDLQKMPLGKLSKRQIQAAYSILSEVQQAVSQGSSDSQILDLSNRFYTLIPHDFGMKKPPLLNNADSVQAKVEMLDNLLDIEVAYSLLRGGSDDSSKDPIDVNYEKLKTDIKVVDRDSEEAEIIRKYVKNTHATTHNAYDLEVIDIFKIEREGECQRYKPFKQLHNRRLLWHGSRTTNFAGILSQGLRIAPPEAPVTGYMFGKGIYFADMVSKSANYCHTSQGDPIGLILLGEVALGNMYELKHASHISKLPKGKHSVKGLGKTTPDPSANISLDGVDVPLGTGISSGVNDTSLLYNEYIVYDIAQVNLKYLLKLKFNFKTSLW

Chain of Poly [ADP-ribose] polymerase 2 (Q9UGN5 whole entry): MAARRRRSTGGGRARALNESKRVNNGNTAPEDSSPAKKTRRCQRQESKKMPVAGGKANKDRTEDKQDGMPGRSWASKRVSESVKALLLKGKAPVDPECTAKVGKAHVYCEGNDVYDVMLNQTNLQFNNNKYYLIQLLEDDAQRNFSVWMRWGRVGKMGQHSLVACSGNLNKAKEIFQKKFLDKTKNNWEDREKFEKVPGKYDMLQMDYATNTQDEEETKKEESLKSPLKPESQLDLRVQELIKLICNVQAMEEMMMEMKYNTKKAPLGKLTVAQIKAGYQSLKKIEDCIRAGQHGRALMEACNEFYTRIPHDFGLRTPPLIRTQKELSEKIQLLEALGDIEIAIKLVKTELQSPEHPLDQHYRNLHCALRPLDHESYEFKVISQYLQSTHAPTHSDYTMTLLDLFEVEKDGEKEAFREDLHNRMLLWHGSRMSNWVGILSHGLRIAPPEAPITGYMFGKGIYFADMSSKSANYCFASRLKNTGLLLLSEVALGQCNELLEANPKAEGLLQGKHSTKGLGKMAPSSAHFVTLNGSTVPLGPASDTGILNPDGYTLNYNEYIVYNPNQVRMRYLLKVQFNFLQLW

IC50 [1] | IC50 [2] | Compound
893 nM | 1290 nM | O=C(CCCc1nc2ccccc2c(=O)[nH]1)N[C@H]1CC[C@H](Oc2ccccc2)C1
160 nM | 1780 nM | COc1ccc2c(c1)[nH]c(=O)n2C1CCN(C(=O)CCCc2nc3ccccc3c(=O)[nH]2)CC1
3020 nM | 10200 nM | O=C(CCSc1nc2ccccc2c(=O)[nH]1)N[C@H]1CC[C@H](c2nnc(-c3ccncc3)o2)CC1
1440 nM | 5570 nM | O=C(CCCc1nc2ccccc2c(=O)[nH]1)N1CCC(c2noc3ccc(F)cc23)CC1
3080 nM | 2260 nM | O=C(CCc1nc2ccccc2c(=O)[nH]1)N[C@H]1CC[C@H](n2c(=O)oc3ccccc32)CC1
1370 nM | 2260 nM | O=C(CCCc1nc2ccccc2c(=O)[nH]1)N1CCC(n2nnc3ccccc32)CC1
333 nM | 992 nM | O=C(CCCc1nc2ccccc2c(=O)[nH]1)N1CCN(c2noc3ccccc23)CC1
 | > 85000 nM | O=C(CCc1cc(=O)n2ccccc2n1)N[C@H]1CC[C@H](c2nnc(-c3ccccc3)o2)CC1

Compound | IC50 [1] | IC50 [2]
O=C1Nc2cc(Cl)ccc2C1C1CCN(C(=O)CCCc2nc3ccccc3c(=O)[nH]2)CC1 (racemic) | 251 nM | 7350 nM

Source: ChEMBL document CHEMBL5725203, “Quinazolinone compounds and derivatives thereof” (2016)
